Test results published in US20100111992A1, “CYTOM[…] AND METHODS OF USE THEREOF” (THE REGENTS OF THE UNIVERSITY OF CALIFORNIA, priority 2006, published 2010).

Tests used:
Type in all cases: cell-based, human
CD8+ T cell effectors = assay: IFNγ expression measured by ELISA, CD8+ T cell effectors (class I peptides)
Procedure: (§1) As such, these experiments focus on confirming that the in vitro recognition of the novel class I and class II CMV epitopes predicted to be strong MHC binders by validated computer algorithms using T cells from CMV-positive healthy donors. Phenotypical analysis of CD4+ T cell effectors included a marker of activation (CD69) as well as T cell inflammatory cytokines (TNFα, IFNγ, and IL-2). Functional analysis of CD4+ and CD8+ T cell effectors was measured by proliferative epitope-specific responses via ^3H incorporation and IFNγ expression measured by ELISA, respectively.
as §1, with “These” for “As such, these”, “confirming” for “confirming that”

PD-L1 (a PD-1 ligand) = assay: Surface expression of PD-L1; settings: Donor CMV001 vs Donor BB008, FIG. 10
[1] = test system: CD4+ induced cells (antigen-stimulated T effector cells); assay: Proliferation assay of CD4+ induced cells (3H incorporation); settings: for stimulation index: as compared to cells without peptide
Procedure: as §1, with “These” for “As such, these”, “confirming” for “confirming that”
Wells are then pulsed with 1 μCi of ^3H for the last 18 hours. Proliferation is then measured by calculating the absorption of ^3H on a beta counter. PHA is a positive control while APCs alone are the negative control. This translates into stimulation indices of 30 and 45.8 in antigen-specific proliferation assays as compared to cells without peptide.
Antigen-stimulated T effector cells are incubated with autologous, irradiated total peripheral blood mononuclear cells for 96 hours. Wells are pulsed with 1 μCi of ^3H for the last 18 hours. Proliferation is then measured by calculating the absorption of ^3H on a beta counter. APCs alone are the negative control.
Data from the six donors SA001, SA005, SA006, BB006, BB008, CMV001, BB011, and BB013 are shown. No peptide versus 3DR (P<0.001); no peptide versus 4DR (P<0.05); 1DR versus 3DR (P<0.05); 2DR versus 3DR (P<0.01); and 3DR versus 6DR (P<0.05).

PD-L2 (a PD-1 ligand) = assay: Surface expression of PD-L2; settings: Donor CMV001 vs Donor BB008, FIG. 11
[2] = test system: PD-1 (programmed cell death-1); assay: Surface expression of PD-1; settings: Donor CMV001 vs Donor BB008, FIG. 9
From the text: This correlates with latency versus infection in the two subjects.

enriched CD4 cells = assay: Intracellular TNFα in CD4 cells (FACS); settings: for immunogenicity (reflected by increased TNFα), CMV-infected subject vs healthy CMV+ subject: Donor CMV001 vs Donor BB008, FIG. 7; for TNFα synthesis as compared to control: FIG. 4, donors SA005 and SA006, in words; for TNFα stimulation (FACS data): over multiple HLA-type donors; for immunogenicity reflected by TNFα: six donors
Procedure: as §1, with “These” for “As such, these”, “confirming” for “confirming that”
In addition, these cells are all chemokine receptor CCR7 negative, reflecting their T effector status.
Enriched CD4 cells are incubated with peptide-pulsed irradiated autologous peripheral blood mononuclear cells, restimulated with peptide on day 7, stimulated with low-dose IL-2 (20 U/ml) on day 10 and 14, and then evaluated for intracellular cytokine production on day 17.

enriched CD4+ cells = assay: Intracellular IL-2 expression in enriched CD4+ cells; settings: for expression of IL-2 as compared to no peptide: FIG. 2, in words; for expression of IL-2 in CD4+ cells: FIG. 2, day 17, cells without peptide 3.18%
Procedure: as §1, with “These” for “As such, these”, “confirming” for “confirming that”
Enriched CD4+ cells are incubated with peptide-pulsed irradiated autologous PBMCs, restimulated with peptide on day 7, stimulated with low-dose IL-2 (20 U/ml) on day 9, and then evaluated for intracellular cytokine production on day 17. FIG. 2A illustrates no peptide, while FIGS. 2B and 2C show stimulation by peptides 1DR and 4DR, respectively.

CD4+ T cell effectors = assay: IFNg in CD4 cells (FACS); settings: for immunogenicity (reflected by increased IFNg), CMV-infected subject vs healthy CMV+ subject: Donor CMV001 vs Donor BB008, FIG. 8; for IFNg stimulation (FACS data): over multiple HLA-type donors; for immunogenicity reflected by IFNg: six donors
Procedure: as §1, with “These” for “As such, these”, “confirming” for “confirming that”

PD-1 = PD-1 Taqman; settings: for ΔCT (BB008) / ΔΔCT(BB008): Donor BB008; for ΔCT (BB008): No Pep 6.4; for ΔΔCT(BB008) / ΔΔCT(BB011) / ΔΔCT(BB013) / ΔΔCT(CMV001): relative to No Pep; for ΔCT (BB011) / ΔΔCT(BB011): Donor BB011; for ΔCT (BB011): No Pep 3.57; for ΔCT(BB013) / ΔΔCT(BB013): Donor BB013; for ΔCT(BB013): No Pep 4.745; for ΔCT(CMV001) / ΔΔCT(CMV001): Donor CMV001; for ΔCT(CMV001): No Pep 5.08
[3] = FIG. 1, 96 hours with autologous irradiated PBMCs, 3H last 18 hours
[4] = excluding CMV-infected subject (CMV001), FIG. 12
[5] = including CMV-infected subject (CMV001), FIG. 13

Sequence | surface expression of PD-L1, CMV-infected subject vs healthy CMV+ subject (PD-L1 (a PD-1 ligand)) | surface expression of PD-L2, CMV-infected subject vs healthy CMV+ subject (PD-L2 (a PD-1 ligand)) | surface expression of PD-1, CMV-infected subject vs healthy CMV+ subject [2] | immunogenicity (reflected by increased TNFα), CMV-infected subject vs healthy CMV+ subject (enriched CD4 cells) | TNFα stimulation (FACS data) (enriched CD4 cells) | immunogenicity reflected by TNFα (enriched CD4 cells; [4]) | immunogenicity (reflected by increased IFNg), CMV-infected subject vs healthy CMV+ subject (CD4+ T cell effectors) | IFNg stimulation (FACS data) (CD4+ T cell effectors) | immunogenicity reflected by IFNg (CD4+ T cell effectors; [4]) | ΔCT (BB008) (PD-1) | ΔΔCT(BB008) (PD-1) | ΔCT (BB011) (PD-1) | ΔΔCT(BB011) (PD-1) | ΔCT(BB013) (PD-1) | ΔΔCT(BB013) (PD-1) | ΔCT(CMV001) (PD-1) | ΔΔCT(CMV001) (PD-1) | further results
YTSAFVFPT [CMV65182-190, human CMV pp65-derived class I peptide, Human (A2)] | – | – | – | – | – | – | – | – | – | – | – | – | – | – | – | – | – | immunogenicity among the class I peptides (CD8+ T cell effectors; IFNγ ELISA): most immunogenic; IFNγ measured by ELISA (mean) (CD8+ T cell effectors; class I peptides, T cells from CMV-positive healthy donors): 1999 pg/mL
MSIYVYALPLKMLNI [1DR, human CMV pp65-derived class II peptide, Human (DRB1)] | more surface expression of PD-L1 | more surface expression of PD-L2 | more surface expression of PD-1 | greater than in a healthy CMV+ subject | peptide-specific TNFα and IFNg stimulation | increased TNFα and IFNg | greater than in a healthy CMV+ subject | peptide-specific TNFα and IFNg stimulation | increased TNFα and IFNg | 5.385 | −1.015 | 3.67 | 0.1 | 5.74 | 0.995 | 3.635 | −1.445 | proliferation, counts per minute [1, 3]: 10,201 cpm; stimulation index ([1]; FIG. 1): 30; TNFα synthesis as compared to control (enriched CD4 cells): stimulate TNFα synthesis; expression of TNFα in CD4 cells (enriched CD4 cells; donor SA005): 15.9%; immunogenicity reflected by TNFα (enriched CD4 cells; [5]): increased TNFα and IFNg; expression of IL-2 as compared to no peptide (enriched CD4+ cells): stimulate expression of IL-2; expression of IL-2 in CD4+ cells (enriched CD4+ cells): 39.58%; immunogenicity reflected by IFNg (CD4+ T cell effectors; [5]): increased TNFα and IFNg
AGILARNLVPMVATV [6DR, human CMV pp65-derived class II peptide, Human (DRB1)] | more surface expression of PD-L1 | more surface expression of PD-L2 | – | – | – | – | – | – | – | – | – | 3.845 | 0.275 | 5.05 | 0.305 | – | – | –
SGKLFMHVTLGSDVE [5DR, human CMV pp65-derived class II peptide, Human (DRB1)] | more surface expression of PD-L1 | more surface expression of PD-L2 | – | – | – | – | – | – | – | 6.26 | −0.14 | 3.97 | 0.4 | 6.73 | 1.985 | 3.53 | −1.55 | –
HVRVSQPSLILVSQY [3DR, human CMV pp65-derived class II peptide, Human (DRB1)] | – | – | more surface expression of PD-1 | greater than in a healthy CMV+ subject | peptide-specific TNFα and IFNg stimulation | increased TNFα and IFNg | greater than in a healthy CMV+ subject | peptide-specific TNFα and IFNg stimulation | increased TNFα and IFNg | 5.635 | −0.765 | 4.08 | 0.51 | 5.995 | 1.25 | 2.545 | −2.535 | stimulation index ([1]; first of two CMV+ healthy donors (FIG. 3)): 83.05; proliferation, counts per minute ([1]; first of two CMV+ healthy donors (FIG. 3; presumably Donor SA005)): 30,231.67 cpm; stimulation index ([1]; second of two CMV+ healthy donors (FIG. 3)): 147.03; proliferation, counts per minute ([1]; second of two CMV+ healthy donors (FIG. 3; presumably Donor SA006)): 49,648.33 cpm; functional response (proliferation data) ([1]; summary in words): leads to a functional response; expression of TNFα in CD4 cells (enriched CD4 cells; donor not given): 34.58%
MISVLGPISGHVLKA [2DR, human CMV pp65-derived class II peptide, Human (DRB1)] | – | – | – | – | – | – | – | – | – | 5.525 | −0.875 | 2.94 | −0.63 | 5.26 | 0.515 | 5.005 | −0.075 | –
DVYYTSAFVFPTKDV [4DR] | more surface expression of PD-L1 | more surface expression of PD-L2 | more surface expression of PD-1 | greater than in a healthy CMV+ subject | peptide-specific TNFα and IFNg stimulation | increased TNFα and IFNg | greater than in a healthy CMV+ subject | peptide-specific TNFα and IFNg stimulation | increased TNFα and IFNg | 1.185 | −5.215 | 3.345 | −0.225 | 4.57 | −0.175 | 1.165 | −3.915 | proliferation, counts per minute [1, 3]: 15,572 cpm; stimulation index ([1]; FIG. 1): 45.8; TNFα synthesis as compared to control (enriched CD4 cells): stimulate TNFα synthesis; immunogenicity reflected by TNFα (enriched CD4 cells; [5]): increased TNFα and IFNg; expression of IL-2 as compared to no peptide (enriched CD4+ cells): stimulate expression of IL-2; expression of IL-2 in CD4+ cells (enriched CD4+ cells): 15.13%; immunogenicity reflected by IFNg (CD4+ T cell effectors; [5]): increased TNFα and IFNg
